Results on 8 molecules are retold here after US12083137B2, “Triazole bisphosphonate geranylgeranyl diphosphate synthase inhibitors” (BOARD OF REGENTS OF THE UNIVERSITY OF NEBRASKA, priority 2017, dated 2024).

Read-outs that look alike come from different tables or passages of the source.

One assay concerns the target Recombinant GGDPS (Homo sapiens (Human), UniProt O95749). Kind of assay: GGDPS enzyme assay. Type of assay: biochemical. The following applies: for Selectivity for GGDPS to FDPS: ratio FDPS IC50 / GGDPS IC50. Here is the method:
(§1) FIG. 9 GGDPS and FDPS enzyme assay data for compounds 19, 20, and 21. Each assay was performed in three independent experiments (R1, R2, R3) and each compound was tested in duplicate at each concentration.
(§2) Each assay was performed in three independent experiments (R1, R2, R3) and each compound was tested in duplicate at each concentration.
GGDPS Enzyme assay (FIG. 9, 10, 11): Recombinant GGDPS was obtained from MyBioSource (San Diego, CA). Recombinant enzyme (20 nM GGDPS) was incubated with assay buffer (50 mM Tris-HCl, pH 7.7, 20 mM MgCl2, 5 mM TCEP, 5 μg/mL BSA) and test compounds for 10 minutes at room temperature. The reaction was initiated by the addition of 10 μM FPP and 10 μM [^14C]-IPP and was carried out at 37° C. for 30 minutes. The reaction was stopped by the addition of saturated NaCl. Radiolabeled GGPP was extracted with n-butanol and counted via liquid scintillation counting. CompuSyn software (ComboSyn, Inc.) was used to analyze the concentration response curves and determine the IC50 values.

In the next assay the target is FDPS (Homo sapiens (Human), UniProt P14324). Kind of assay: FDPS enzyme assay. The format is biochemical. Here is the method: as §1, §2
Sequence of FDPS (P14324 whole entry, species assumed): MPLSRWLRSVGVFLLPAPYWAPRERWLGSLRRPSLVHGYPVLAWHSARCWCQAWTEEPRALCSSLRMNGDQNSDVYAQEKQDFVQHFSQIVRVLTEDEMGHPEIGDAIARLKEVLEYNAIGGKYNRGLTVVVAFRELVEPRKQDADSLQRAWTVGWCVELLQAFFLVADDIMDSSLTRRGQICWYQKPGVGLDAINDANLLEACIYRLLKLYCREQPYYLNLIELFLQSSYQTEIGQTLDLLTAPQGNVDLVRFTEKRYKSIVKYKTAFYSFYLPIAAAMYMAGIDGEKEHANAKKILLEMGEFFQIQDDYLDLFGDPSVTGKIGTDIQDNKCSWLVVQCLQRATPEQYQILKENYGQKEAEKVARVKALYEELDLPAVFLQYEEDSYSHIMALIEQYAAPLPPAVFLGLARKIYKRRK
Assay [1] has as its system RPMI-8226 cells. Kind of assay: Cellular protein geranylgeranylation: Rap1a immunoblot plus intracellular lambda light chain ELISA. Type of assay: cell-based, Human. The following applies: 48 h; for Cellular LEC (lowest effective concentration): lowest concentration with visible unmodified Rap1a band and statistically significant increase in intracellular lambda light chain; for relative cellular activity (comparison in words): myeloma cells. Here is the method: (§3) RPMI-8226 cells were incubated for 48 h in the presence or absence of lovastatin (Lov, 10 μM) or varying concentrations of the test compounds. Intracellular lambda light chain concentrations were determined via ELISA. Data are expressed as a percentage of control (mean±SD, n=3). The * denotes p<0.05 per unpaired two-tailed t-test.
The impact of substituents at the α-carbon of the compounds disclosed herein on cellular activity was assessed in myeloma cells. Impairment of cellular protein geranylgeranylation was determined via two methods: 1) ELISA for intracellular lambda light chain which is a marker for disruption of Rab GTPase geranyl-geranylation (FIGS. 1, 3, 5, 7) and 2) immunoblot analysis for unmodified Rap1a (a substrate of GGTase I) (FIGS. 2, 4, 6, 8). Lovastatin, an HMG-CoA reductase inhibitor, was included as a positive control. […] Next, the impact of the olefin stereochemistry on biological activity was determined.
Immunoblot analysis (FIG. 2, 4, 6, 8): Multiple myeloma cells were incubated (37° C. and 5% CO2) with test compounds for 48 hours in RPMI-1640 media containing 10% fetal bovine serum and penicillin-streptomycin. Whole cell lysate was obtained using RIPA buffer (0.15 M NaCl, 1% sodium deoxycholate, 0.1% SODS, 1% Triton (v/v) X-100, 0.05 M Tris HCl) containing protease and phosphatase inhibitors. Protein content was determined using the bicinchoninic acid (BCA) method (Pierce Chemical, Rockford, IL). Equivalent amounts of cell lysate were resolved by SODS-PAGE, transferred to polyvinylidene difluoride membrane, probed with the appropriate primary antibodies, and detected using HRP-linked secondary antibodies and Bio-Rad Clarity ECL Substrate Western blotting reagents per manufacturer's protocols.
(§4) Lambda light chain ELISA (FIG. 1, 3, 5, 7): Human lambda light chain kit (Bethyl Laboratories, Montgomery, TX) was used to quantify intracellular monoclonal protein levels of whole cell lysate. Lambda light chain levels were normalized to total protein levels (as determined by BCA).
For orientation: In western blotting, separated proteins are transferred to a membrane and probed.

For assay [2], the system named is RPMI-8226 cells. Kind of assay: Lambda light chain ELISA (intracellular lambda light chain, marker of Rab GTPase geranylgeranylation disruption). The format is cell-based, Human. The following applies: 48 h. Here is the method:
as §3, §4

Setting [3] is: 20 nM recombinant GGDPS, 10 μM FPP, 10 μM [14C]-IPP, 37° C. 30 minutes, read-out: GGDPS IC50.

Sequence of Recombinant GGDPS (O95749 whole entry): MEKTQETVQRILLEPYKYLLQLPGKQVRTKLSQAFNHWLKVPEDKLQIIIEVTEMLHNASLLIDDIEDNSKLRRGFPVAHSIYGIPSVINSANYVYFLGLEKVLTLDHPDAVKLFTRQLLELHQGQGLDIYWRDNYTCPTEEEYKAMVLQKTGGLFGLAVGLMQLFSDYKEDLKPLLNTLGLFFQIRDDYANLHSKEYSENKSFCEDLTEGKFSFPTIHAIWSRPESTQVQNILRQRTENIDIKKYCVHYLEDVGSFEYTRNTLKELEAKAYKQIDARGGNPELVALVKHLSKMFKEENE

`CC(C)=CCCC(C)=CCn1cc(CC(C)(P(=O)([O-])[O-])P(=O)([O-])[O-])nn1.[Na+].[Na+].[Na+].[Na+]` [Compound 19, Sodium (1-(1-(3,7-dimethylocta-2,6-dien-1-yl)-1H-1,2,3-triazol-4-yl)propane-2,2-diyl)bis(phosphonate)]: the “relative GGDPS inhibitory activity in enzymatic assays (comparison in words)” value (“relative GGDPS inhibitory activity” below) on Recombinant GGDPS is reported as “more potent than its corresponding non-methylated analogue 31”. Besides, the 50% inhibitory concentration (IC50) (usually the point on the concentration scale where inhibition reaches its midpoint) on Recombinant GGDPS (setting [3]) is 100 ± 19 nM; at FDPS (read-out: FDPS IC50), 24.1 ± 3.15 µM. Further, at Recombinant GGDPS, the “Selectivity for GGDPS to FDPS” value is listed as 241. Moreover, the “Cellular LEC (lowest effective concentration)” value (from here on “Cellular LEC”) in the assay on RPMI-8226 cells [1] was determined as 0.03 µM.
For `CC(C)=CCC/C(C)=C/Cn1cc(CC(C)(P(=O)([O-])[O-])P(=O)([O-])[O-])nn1.[Na+].[Na+].[Na+].[Na+]` [Compound 21, Sodium (E)-(1-(1-(3,7-dimethylocta-2,6-dien-1-yl)-1H-1,2,3-triazol-4-yl)propane-2,2-diyl)bis(phosphonate)], the “specificity (selectivity) for GGDPS over FDPS” value at Recombinant GGDPS is recorded as “at least 3.5 fold”. Moreover, the IC50 came out at 125 ± 27 nM on Recombinant GGDPS (setting [3]) and 43.1 ± 2.98 µM at FDPS (read-out: FDPS IC50). Further, the “Selectivity for GGDPS to FDPS” value at Recombinant GGDPS is on record as 345. In addition, the “Cellular LEC” value in the assay on RPMI-8226 cells [1] is 0.02 µM.
Take `CC(C)=CCC/C(C)=C/CCn1cc(CC(C)(P(=O)([O-])[O-])P(=O)([O-])[O-])nn1.[Na+].[Na+].[Na+].[Na+]` [Compound 18, Sodium (E)-(1-(1-(4,8-dimethylnona-3,7-dien-1-yl)-1H-1,2,3-triazol-4-yl)propane-2,2-diyl)bis(phosphonate)]: at Recombinant GGDPS, the IC50 is 20500 ± 2300 nM and the “Selectivity for GGDPS to FDPS” value is reported as 3.5. On FDPS, 71.4 ± 24.2 µM corresponded to half-maximal inhibition (IC50). Besides, in the assay on RPMI-8226 cells [1], the “Cellular LEC” value is 5.0 µM and the “relative cellular activity (comparison in words)” value was “slightly more potent than the Z-isomer”.
`CC(C)=CCC/C(C)=C\CCn1cc(CC(C)(P(=O)([O-])[O-])P(=O)([O-])[O-])nn1.[Na+].[Na+].[Na+].[Na+]` [Compound 17, Sodium (Z)-(1-(1-(4,8-dimethylnona-3,7-dien-1-yl)-1H-1,2,3-triazol-4-yl)propane-2,2-diyl)bis(phosphonate)]: the IC50 was 920 ± 89 nM at Recombinant GGDPS and more than 100 µM at FDPS. Also, the “Selectivity for GGDPS to FDPS” value on Recombinant GGDPS was more than 108. Also, in the assay on RPMI-8226 cells [1], the “Cellular LEC” value came out at 0.1 µM.
`CC(C)=CCC/C(C)=C\CCn1cc(CC(C)(P(=O)(OCOC(=O)C(C)(C)C)OCOC(=O)C(C)(C)C)P(=O)(OCOC(=O)C(C)(C)C)OCOC(=O)C(C)(C)C)nn1` [Compound 25, (Z)-(((1-(1-(4,8-dimethylnona-3,7-dien-1-yl)-1H-1,2,3-triazol-4-yl)propane-2,2-diyl)bis(oxo-15-phosphanetriyl))tetrakis(oxy))tetrakis(methylene) tetrakis(2,2-dimethylpropanoate)]: in the assay with RPMI-8226 cells [2] (FIG. 7, RPMI-8226 cells), the “improvement in cellular activity of POM-version versus corresponding salt 17” value is given as “approximately 10 fold”.
In the case of `CCC(Cc1cn(C/C=C(\C)CCC=C(C)C)nn1)(P(=O)(O)O)P(=O)(O)O` [Compound 28], on Recombinant GGDPS (setting [3]), the IC50 turned out to be 5850 ± 1300 nM. In addition, at Recombinant GGDPS, the “Selectivity for GGDPS to FDPS” value is 16. Also, the IC50 at FDPS (read-out: FDPS IC50) is 94.3 ± 20.6 µM. Further, in the assay on RPMI-8226 cells [1], the “Cellular LEC” value worked out at 2.5 µM and the “relative cellular activity (comparison in words)” value is “less potent than either the parent compound 31”.
For the molecule `CC(C)=CCC/C(C)=C\Cn1cc(CC(C)(P(=O)([O-])[O-])P(=O)([O-])[O-])nn1.[Na+].[Na+].[Na+].[Na+]` [Compound 20, Sodium (Z)-(1-(1-(3,7-dimethylocta-2,6-dien-1-yl)-1H-1,2,3-triazol-4-yl)propane-2,2-diyl)bis(phosphonate)], at Recombinant GGDPS, the “relative GGDPS inhibitory activity” value is given as “more potent than the E isomer 21” and the “Selectivity for GGDPS to FDPS” value worked out at 693. At Recombinant GGDPS (setting [3]), the IC50 was determined as 86 ± 22 nM. Besides, on FDPS (read-out: FDPS IC50), the concentration for half-maximal inhibition (IC50) stood at 59.6 ± 15 µM. The “Cellular LEC” value in the assay with RPMI-8226 cells [1] turned out to be 0.025 µM. For the same molecule, the “cellular potency of Z-isomer relative to the E-isomer 21” value in the assay with RPMI-8226 cells [2] (FIG. 5, RPMI-8226 cells) is given as “approximately 50 fold”.
As to `CC(C)=CCCC(C)=CCCn1cc(CC(C)(P(=O)([O-])[O-])P(=O)([O-])[O-])nn1.[Na+].[Na+].[Na+].[Na+]` [Compound 16, Sodium (1-(1-(4,8-dimethylnona-3,7-dien-1-yl)-1H-1,2,3-triazol-4-yl)propane-2,2-diyl)bis(phosphonate)], on Recombinant GGDPS, the IC50 is 1270 ± 303 nM, the “relative GGDPS inhibitory activity” value is given as “very similar to the individual isomers” and the “Selectivity for GGDPS to FDPS” value turned out to be 49. Further, 62.2 ± 7.22 µM corresponded to half-maximal inhibition on FDPS (IC50). For the same molecule, the “Cellular LEC” value with RPMI-8226 cells [1] was 0.1 µM.
